Consider six molecules from patent US5279935A, “Method of immunossay including deactivation of endogenous alkaline phosphatase” (Becton, Dickinson and Company, priority 1990, dated 1994).

Read-outs that look alike come from different tables or passages of the source.

One assay concerns the target E. coli AP (Escherichia coli, UniProt P00634). It is filed as biochemical.
The test system of assay [1] is endogenous AP in uninfected MDCK cells. Details: species or system canine.
Where [2] appears, read: 4.8 units/test of E. coli AP spike.
The mark [3] stands for this setting: 4.8 units/test of E. coli AP spike, no antigen, acid wash 0.15M.
Setting [4] is: 600 ng uninfected MDCK cells, acid wash 0.15M.

Sequence of E. coli AP (P00634 22-471): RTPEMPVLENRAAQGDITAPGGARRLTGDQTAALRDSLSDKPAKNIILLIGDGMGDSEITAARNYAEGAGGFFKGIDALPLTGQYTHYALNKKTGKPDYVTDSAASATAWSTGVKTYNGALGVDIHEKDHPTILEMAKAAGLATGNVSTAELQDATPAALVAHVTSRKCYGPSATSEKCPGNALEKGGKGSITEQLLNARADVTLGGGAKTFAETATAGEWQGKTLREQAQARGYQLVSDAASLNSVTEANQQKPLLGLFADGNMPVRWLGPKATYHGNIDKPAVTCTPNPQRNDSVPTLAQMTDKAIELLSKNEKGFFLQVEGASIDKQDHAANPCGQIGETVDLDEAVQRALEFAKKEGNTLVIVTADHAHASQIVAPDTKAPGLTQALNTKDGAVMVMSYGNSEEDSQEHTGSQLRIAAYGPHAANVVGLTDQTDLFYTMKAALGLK

Take `O=C(O)C(O)C(O)C(=O)O` (stereo not drawn) [C, tartaric acid]: the “reduction of signal due to the AP spike in comparison to the control (no acid)” value on E. coli AP (setting [2]) was “most effective”. Further, the reflectance entry at E. coli AP (setting [3]) is given as “.04”. In addition, in assay [1] (setting [4]), the “Reflectance (arbitrary units)” value is recorded as “.10 arbitrary units”.

Consider `O=C(O)CCCC(=O)O` [B, glutaric acid], for which, on E. coli AP (setting [3]), the reflectance entry is listed as “.06” and the visual entry is on record as “(+)”. Moreover, in assay [1] (setting [4]), the “Reflectance (arbitrary units)” value is “.10 arbitrary units”.

Take `CC(O)C(=O)O` (stereo not drawn) [F, lactic acid]: on E. coli AP (setting [3]), the reflectance result is reported as “.06” and the visual result was “(+)”. The “Reflectance (arbitrary units)” value in assay [1] (setting [4]) is reported as “.12 arbitrary units”.

Regarding `O=C(O)CC(O)(CC(=O)O)C(=O)O` [A, citric acid], the “reduction of signal due to the AP spike in comparison to the control (no acid)” value at E. coli AP (setting [2]) is listed as “most effective”. In addition, the reflectance result at E. coli AP (setting [3]) is given as “.03”. The “Reflectance (arbitrary units)” value in assay [1] (setting [4]) is “.12 arbitrary units”.

As for `O=C(O)CC(O)C(=O)O` (stereo not drawn) [E, malic acid], on E. coli AP (setting [3]), the reflectance result is listed as “.06” and the visual result is “(+)”. In assay [1] (setting [4]), the “Reflectance (arbitrary units)” value is “.12 arbitrary units”.

On to `O=C(O)CCC(=O)O` [D, succinic acid], for which, on E. coli AP, the reflectance entry is “.06” and the visual entry is “(+)”. In addition, the “Reflectance (arbitrary units)” value in assay [1] is “.10 arbitrary units”.
